Marks after values point to notes of the source that are not given here.
Tests used:
[1] = target: T1, Topoisomerase II α human (Homo sapiens, UniProt P11388); test: Isothermal titration calorimetry (ITC) of interactions with TOPIIα; type: binding; details: single compounds; for ∆G (kJ/mol) ITC / ∆H (kJ/mol) ITC: 36.6 °C, mean ± SD, n = 6
T1 construct: purchased Sigma Aldrich (St. Louis, MO, USA)
Experimental: The parameters of interactions of coffee and its components with TOPIIα were carried out using the isothermal titration calorimetry (ITC) (MicroCal PEAQ-ITC 200, Malvern, Worcestershire, UK). Analyses were carried out according to Grzelczyk et al., with some modifications. A calorimeter cell with a capacity of 0.2 mL was filled with 0.1 μmol/L of TOPIIα solution in ultrapure water (deionized, LC-MS grade); the syringe was subsequently filled with titrants as degassed aqueous solutions of chlorogenic acids (CHAs); green, light-, or dark-roasted coffee extracts; coffee fraction; before and after in vitro digestion, at concentrations of 10 mmol/L (coffee extracts at concentrations of 0.1 mmol/L calculated based on 5-caffeoylquinic acid). The measurements were carried out at 36.6 °C with continuous stirring at 307 rpm (10 injections, 25 min). During the ITC analysis, an exothermic or endothermic reaction was recorded, when the binding of compounds to the enzyme occurred. The heat was generated as a consequence of ligand-to-protein binding, which is observed as an energy peak (raw data of heat in […]). The titration of a ligand into water was performed to subtract the energetic effects of dilution. The enthalpy changes (∆H), Gibbs free energy changes (∆G), and entropy changes (∆S) were calculated from the ITC titration nonlinear least squares saturation curve fitting carried out using MicroCal PEAQ-ITC200 software 1.30 [40].

[2] = system: human topoisomerase IIα; set-up: method as in PMID 18461976; details: 100 μM solutions; cited from earlier work
[3] = listed as 4,5-di-O-caffeoylquinic acid

T1 sequence (P11388 whole entry): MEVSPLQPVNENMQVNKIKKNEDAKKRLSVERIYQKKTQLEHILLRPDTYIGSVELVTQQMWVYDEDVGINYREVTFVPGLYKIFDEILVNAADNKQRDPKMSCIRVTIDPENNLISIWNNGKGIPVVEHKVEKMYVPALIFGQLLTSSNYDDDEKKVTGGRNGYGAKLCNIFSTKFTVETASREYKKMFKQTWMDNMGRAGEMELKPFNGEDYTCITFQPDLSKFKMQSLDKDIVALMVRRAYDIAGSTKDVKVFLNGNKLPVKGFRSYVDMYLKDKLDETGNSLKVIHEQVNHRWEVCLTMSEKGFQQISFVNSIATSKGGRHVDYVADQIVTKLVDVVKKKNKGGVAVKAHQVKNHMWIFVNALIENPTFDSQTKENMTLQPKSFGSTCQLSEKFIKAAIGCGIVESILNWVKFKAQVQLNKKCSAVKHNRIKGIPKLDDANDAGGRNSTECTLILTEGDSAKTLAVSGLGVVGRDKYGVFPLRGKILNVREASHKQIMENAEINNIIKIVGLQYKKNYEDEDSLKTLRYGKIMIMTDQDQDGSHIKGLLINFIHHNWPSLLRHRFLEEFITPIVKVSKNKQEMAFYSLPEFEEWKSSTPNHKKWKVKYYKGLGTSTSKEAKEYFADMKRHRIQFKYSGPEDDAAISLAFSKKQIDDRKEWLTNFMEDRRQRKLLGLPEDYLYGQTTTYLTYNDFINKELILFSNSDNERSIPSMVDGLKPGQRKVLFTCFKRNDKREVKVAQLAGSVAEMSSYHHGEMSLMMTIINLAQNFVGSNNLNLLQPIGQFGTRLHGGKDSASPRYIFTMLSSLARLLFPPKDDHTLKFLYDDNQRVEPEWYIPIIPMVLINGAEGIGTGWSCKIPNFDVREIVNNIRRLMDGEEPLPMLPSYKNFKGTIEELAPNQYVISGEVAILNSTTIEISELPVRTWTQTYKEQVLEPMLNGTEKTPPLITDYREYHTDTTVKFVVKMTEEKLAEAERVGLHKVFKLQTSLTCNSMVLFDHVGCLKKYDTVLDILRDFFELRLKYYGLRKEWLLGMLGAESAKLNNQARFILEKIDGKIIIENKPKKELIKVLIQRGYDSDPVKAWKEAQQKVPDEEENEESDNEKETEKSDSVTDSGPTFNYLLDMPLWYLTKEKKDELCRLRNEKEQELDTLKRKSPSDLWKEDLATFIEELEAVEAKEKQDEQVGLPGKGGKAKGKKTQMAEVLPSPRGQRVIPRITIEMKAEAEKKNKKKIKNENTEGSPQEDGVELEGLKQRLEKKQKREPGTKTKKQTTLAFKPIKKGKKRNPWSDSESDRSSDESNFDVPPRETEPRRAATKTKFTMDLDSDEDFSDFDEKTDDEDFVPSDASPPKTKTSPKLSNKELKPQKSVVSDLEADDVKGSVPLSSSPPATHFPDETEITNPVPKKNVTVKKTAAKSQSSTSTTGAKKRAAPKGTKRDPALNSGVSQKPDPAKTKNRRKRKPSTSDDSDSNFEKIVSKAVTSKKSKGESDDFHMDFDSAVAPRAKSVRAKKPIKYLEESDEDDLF

| Compound | ∆G (kJ/mol) ITC [1] | ∆H (kJ/mol) ITC [1] | mode of action on human topoisomerase IIα [2] | also measured |
| --- | --- | --- | --- | --- |
| O=C(C=Cc1ccc(O)c(O)c1)OC1CC(O)(C(=O)O)CC(OC(=O)C=Cc2ccc(O)c(O)c2)C1O (centres unmarked) [3,5-Di-O-caffeoylquinic acid] | −33.87 ± 1.39 ^a kJ/mol | −8.00 ± 0.45 ^c,a kJ/mol | – | – |
| O=Cc1ccc(CO)o1 [5-(Hydroxymethyl)furfural] | – | – | – | interactions with TOPIIα in ITC measurements [1]: did not show significant interactions |
| C=CC(N)=O [Acrylamide] | – | – | – | interactions with TOPIIα in ITC measurements [1]: did not show significant interactions |
| Cn1c(=O)c2c(ncn2C)n(C)c1=O [Caffeine, reference compound] | −34.50 ± 1.15 ^d kJ/mol | −6.28 ± 0.45 ^e kJ/mol | – | – |
| O=c1c(O)c(-c2ccc(O)cc2)oc2cc(O)cc(O)c12 [kaempferol] | – | – | redox-dependent poisons rather than the enzyme inhibitors | – |
| O=c1c(O)c(-c2cc(O)c(O)c(O)c2)oc2cc(O)cc(O)c12 [myricetin] | – | – | redox-dependent poisons rather than the enzyme inhibitors | – |
| O=c1c(O)c(-c2ccc(O)c(O)c2)oc2cc(O)cc(O)c12 [quercetin] | – | – | redox-dependent poisons rather than the enzyme inhibitors | – |

Second part, led by results:

| ∆G (kJ/mol) ITC [1] | ∆H (kJ/mol) ITC [1] | Compound | mode of action on human topoisomerase IIα [2] | also measured |
| --- | --- | --- | --- | --- |
| −37.64 ± 1.35 ^c kJ/mol | −1.78 ± 0.15 ^d kJ/mol | O=C(C=Cc1ccc(O)c(O)c1)OC1CC(O)(C(=O)O)CC(O)C1OC(=O)C=Cc1ccc(O)c(O)c1 (centres unmarked) [4,5-Di-O-caffeoylquinic acid] | – | ∆G (kJ/mol) ITC [1, 3]: -37.64 kJ/mol; ∆H (kJ/mol) ITC [1, 3]: -1.78 kJ/mol |
| −33.54 ± 1.09 ^a kJ/mol | −9.04 ± 0.25 ^a kJ/mol | O=C(O)/C=C/c1ccc(O)c(O)c1 [Caffeic acid] | – | – |
| −34.42 ± 1.33 ^d kJ/mol | −6.49 ± 0.29 ^e kJ/mol | O=C(O)CCc1ccc(O)c(O)c1 [Dihydrocaffeic acid] | – | – |

Reference: paper PMC10457778, “Effects of In Vitro Digestion of Polyphenols from Coffee on Binding Parameters to Human Topoisomerase II α” (Molecules, 2023)
